The results in this text go back to patent US8921356B2, “Compositions comprising nicotinic agonists and methods of using same” (priority 2007, dated 2014).

The test system of experiment [1] is rats. In words: Nicotine-induced hypothermia in rats. Type of experiment: in vivo, rat. How it is done:
(§1) (ii) Animals—Young adult (240 g-290 g) male Sprague-Dawley rats (Charles River, USA or Harlan, Israel) were used in the experiments.
(iv) Determination of nicotine-induced hypothermia—Rats were placed individually in experimental cages kept at 25° C. and were allowed to rest for 1 h before drug injection. During this period, body temperature was measured at 15- or 30-min intervals in order to exclude the effect of handling on animal temperature. Body temperature was measured with a rectal thermistor probe (M.R.C, Israel, sensitivity 0.1° C.). The probe was lubricated with petroleum before being inserted into the rectum to a depth of 2 cm. The data are presented as changes in rectal temperature from the basal values. Basal values are those taken immediately before the drug injection (time 0).
Rats were divided into three treatment groups, each of 5 rats, as follows: 1. treatment with nicotine (2 mg/kg); 2. treatment with opipramol (20 mg/kg); 3. treatment with opipramol (20 mg/kg) together with nicotine (2 mg/kg). Rats were injected with nicotine twice on the first day (FIG. 3A, D-1, left panel) and three times on days 2 (FIG. 3A, D-2, middle panel) and 3 (FIG. 3A, D-3, right panel). […] Nicotine was injected with and without opipramol, and body temperature was measured at 30 min intervals. […] FIG. 3A: Each point is the Mean±S.E.M. of change in body temperature compared to the temperature measured at time 0 (before the first injection) for at least five rats. FIG. 3B depicts a bar histogram representing mean±S.E.M. of the maximum change in body temperature compared to the temperature measured just before the injection.
The body temperature (0 C) was measured 30 min post injection. FIG. 7 depicts the maximum decrease in body temperature after each injection.
Nicotine (2 mg/kg), lidocaine (15 mg/kg), and nicotine+lidocaine (2 mg/kg+15 mg/kg) were administered to rats 2× day for two days, following the above protocol.

In experiment [2] the test system is rats. In words: Elevated plus maze (EPM) anxiety test in rats. Type of experiment: in vivo, rat.
Description: as §1
(v) Elevated […] Maze (EPM)—The purpose of the EPM is to determine the anxiolytic effects of tested drugs. The time that the experimental animals spend in the open arm of the maze is an indication for the anxiolytic effect, the longer the time the higher the anxiolytic effect. The EPM is a wooden, cross-shaped device, consisting of four arms arranged in the shape of a plus sign. Two of the arms have no side or end walls (open-arms; 30×5×0.25 cm). The other two arms have side walls and end walls, but are open on top (closed arms; 30×5×15 cm). The maze is elevated to a height of 50 cm. The animals are kept in a relatively dark box before exposure to the maze in order to increase their exploratory behavior. The tests were done in a silent environment under dim light. The animals were carried to the laboratory and left there undisturbed for 1 h before the experiment.
This test is used to assess anxiety. Rats were randomly assigned into five groups each containing 5 animals and then tested in an Elevated Plus Maze (EPM). In the first (control) group, rats were injected with saline once a day; in the second group rats were injected with nicotine (0.5 mg/kg or 2 mg/kg) three times a day and were tested in the maze after the third injection; in the third group rats were injected with opipramol (10 mg/kg) three times a day and then were tested in the maze; in the fourth group, rats were injected with opipramol (10 mg/kg) or galantamine (5 mg/kg), and nicotine (2 mg/kg or 0.5 mg/kg) three times a day and were tested in the maze after the last injection. The behavioral response to nicotine in the EPM was assessed 30 min after the first injection, and then again 30 minutes after the third injection.

Experiment [3] relates to smooth muscle of a guinea pig ileum. In words: Nicotine-induced smooth muscle contraction in the guinea pig ileum preparation. How it is done:
The free end of a smooth muscle of a guinea pig ileum was attached to a force displacement transducer. Isometric tension of the smooth muscle was continuously monitored by outputting the preamplified transducer signal to a computer.
The ileum preparation was washed by physiological solution 10 min after the addition of nicotine and then nicotine at a final concentration of 25 μM was added again to the muscle preparation for additional 10 min (2nd stimulation; bar 3).

The next experiment relates to nAChR. Description: Nicotine-induced 45Ca2+ uptake (calcium influx) in SK-N-SH human neuroblastoma cells. The experiment is classed as cell-based. How it is done: (i) Cells—SK-N-SH human neuroblastoma cell line was obtained from the American Type Culture Collection (ATTC).
SK-N-SH human neuroblastoma cells, known to express nAChR, were grown in Dulbecco/Vogt Modified Eagle's Minimal Essential Medium (DMEM) to confluency in a 24-well plate. DMEM containing 45Ca^2+ without any other addition (1) or with 50 μM nicotine (2) or with 50 μM nicotine+10 μM opipramol (3) was added to cells grown in 24-well plates and preincubated with medium alone for 15 minutes, then washed rapidly. Intra cellular radioactivity was determined for each condition. The same medium with nicotine was added also to cells that were preincubated for 15 minutes with either 50 μM nicotine alone (4) or with 50 μM nicotine+10 μM opipramol (5). 45Ca2+ uptake was determined after 10 min. Activation of the nicotinic receptors causes calcium influx so it is a measure of the nicotinic receptor activity.

The test system of another experiment is BDNF mRNA. Description: BDNF mRNA expression in rat cerebral cortex. Type of experiment: in vivo. How it is done: Nicotine alone (0.5 mg/kg) or opipramol (10 mg/kg) or nicotine (0.5 mg/kg)+opipramol (10 mg/kg) were injected intraperitoneally (ip) to rats (5 per group) at intervals of 2 hours during a single day. The drugs were dissolved in saline and used in the same day. […] Animals were sacrificed 90 min after each injection and brain derived neurotrophic factor (BDNF) and β-actin mRNA were determined in homogenates of the cerebral cortex of each animal.
Homogenates of the cerebral cortex were prepared as follows: Rat brain tissues were sonicated for 15 sec and total RNA was obtained using the Trizol Reagent (Molecular Research Center, Cincinnati, Ohio, USA), according to the manufacturer's instructions. RNA concentrations were quantified by measuring the absorbances at 260 and 280 nm. RNA was reverse transcribed into cDNA during 45 min at 42° c. The cDNA products were diluted 1:40 for BDNF and 1:1000 for β-actin (a housekeeping gene for internal standard). In order to amplify gene specific sequences, PCR techniques were applied using ReadyMix PCR Master Mix (AB-genes, Surrey, UK) and specific primer sequences for BDNF and beta actin. The products were separated by electrophoresis on agarose and quantification of the bands was done by an image analyzer.

Each structure is given as a SMILES string.

In the case of `CN(C)CCCN1c2ccccc2CCc2ccc(Cl)cc21` [clomipramine], the “hypothermic effect of nicotine” value with rats [1] (clomipramine 30 mg/kg with nicotine 2 mg/kg, consecutive injections 2 h apart) was “no further reduction in the hypothermic effect”; with rats [1] (clomipramine 30 mg/kg with nicotine 2 mg/kg, first injection), “inhibited to some extent the effect of nicotine”.

As to `CCN(CC)CC(=O)Nc1c(C)cccc1C` [lidocaine], in the experiment with rats [1] (lidocaine 15 mg/kg + nicotine 2 mg/kg, 2x day for two days), the “hypothermic effect of nicotine” value was “maintained the hypothermic effect of nicotine”.

On to `CN1CCC[C@H]1c1cccnc1` [nicotine, S-3-(1-methyl-2-pyrrolidinyl)pyridine], for which the “anxiolytic effect (time in open arm)” value in the experiment on rats [2] (nicotine alone, 0.5 mg/kg and 2 mg/kg, second injection) is given as “did not induce an anxiolytic effect”. Moreover, the “time spent in the open arm (anxiolytic effect)” value in the experiment on rats [2] (one injection of nicotine) was “significantly increased”. Further, the muscle contraction result in experiment [3] (1st stimulation, 25 μM nicotine alone) is “caused muscle contraction”; in experiment [3] (2nd stimulation with 25 μM nicotine after 1st stimulation with nicotine alone) it was “did not induce muscle contraction”. Also, the “calcium influx (45Ca2+ uptake)” value with nAChR (first exposure to 50 μM nicotine, compared to basal uptake, SK-N-SH cells) is listed as “caused an increase in calcium influx”; in the experiment on nAChR (second exposure to 50 μM nicotine after 15 min preincubation with nicotine alone) it was “considerably reduced”. In the experiment on rats [1] (nicotine 2 mg/kg alone, 2x day for two days), the hypothermic effect result was “loss of the hypothermic effect”. For the same molecule, the “hypothermic effect (maximum decrease in body temperature)” value with rats [1] (nicotine 2 mg/kg alone, 3 injections 2 h apart) is “gradual decrease in the hypothermic effect”. In addition, the “magnitude of the decrease in body temperature” value in the experiment on rats [1] (nicotine 2 mg/kg repeatedly injected for three consecutive days, P<0.05) is “became progressively smaller”. Further, the “BDNF mRNA level (ratio to β-actin)” value is listed as “much smaller rise” with BDNF mRNA (nicotine 0.5 mg/kg ip alone, repeated (third) injection) and “increased” in the experiment with BDNF mRNA (nicotine 0.5 mg/kg ip, first injection).

Take `OCCN1CCN(CCCN2c3ccccc3C=Cc3ccccc32)CC1` [opipramol]: the “anxiolytic effect (time in open arm)” value in the experiment on rats [2] (nicotine 0.5 mg/kg together with opipramol 10 mg/kg or galantamine 5 mg/kg, second injection) is on record as “the anxiolytic effect was seen in the second injection”; with rats [2] (nicotine 2 mg/kg together with opipramol 10 mg/kg or galantamine 5 mg/kg), “inhibited desensitization”. Besides, the “effect of nicotine (muscle contraction) relative to that induced by nicotine alone” value in experiment [3] (1st stimulation, 25 μM nicotine in the presence of 10 μM opipramol) is “about 50%”. Further, the “muscle contraction response to nicotine” value in experiment [3] (2nd stimulation with 25 μM nicotine after 1st stimulation in the presence of opipramol) is recorded as “almost full response”. The “duration of the effect of nicotine (muscle contraction)” value in experiment [3] (nicotine administered together with opipramol, until removal by washing, data not shown) is “maintained steady for one hour”. The “calcium uptake (45Ca2+)” value in the experiment with nAChR (first stimulation with 50 μM nicotine in the presence of 10 μM opipramol, compared to nicotine alone) is “only slightly smaller”. Besides, the “nAChR desensitization (45Ca2+ uptake at second nicotine stimulation)” value in the experiment with nAChR (second stimulation with 50 μM nicotine after 15 min preincubation with 50 μM nicotine + 10 μM test drug) is “remarkedly reduced”. For the same molecule, in the experiment on rats [1] (opipramol 20 mg/kg alone), the “change in body temperature” value was “only a slight decrease in body temperature”. In addition, the “magnitude of the reduction in body temperature” value in the experiment with rats [1] (opipramol 20 mg/kg together with nicotine 2 mg/kg, second and third day, after second and third injections, P<0.001) is “significantly larger than that induced by nicotine alone”. The “BDNF mRNA level (ratio to β-actin)” value was “rising even above that which was observed with nicotine alone” with BDNF mRNA (nicotine 0.5 mg/kg + opipramol 10 mg/kg ip, third injection) and “no effect” in the experiment with BDNF mRNA (opipramol 10 mg/kg ip alone, third injection).
